The results in this text go back to US7528144B2, “Molecules and methods for fluorescence microscopy” (WiSys Technology Foundation, Inc., priority 2005, dated 2009).

The test system of this data set is THP-1 cells. In words: Photobleaching under repeated exposures in cells. The data set is classed as cell-based. The note with it: 75-200 nM, repeated CCD exposures (FIG. 25). Here is the method:
FIG. 25 depicts (A) InstantLyso LLT-1 at 75 nM in THP-1 cells. Exposures were taken every 30 seconds (with consistent CCD exposure length 7.5 seconds) with blue excitation cube (490 nm maximum).; (B) InstantGolgi McN-1 at 200 nm in THP-1 cells. Exposures were taken with consistent CCD exposure length with purple excitation cube.; (C) InstantLipo Sep-1at 200 nm in THP-1 cells. Exposures were taken with consistent CCD exposure length with purple excitation cube; and (D) Lysotracker Red at 75 nM in THP-1 cells. Exposures were taken every 5 seconds (with consistent CCD exposure length) with green excitation cube. Unretouched, unprocessed images.
The dyes of the present invention hold up well to photobleaching relative to the time needed to take most fluorescence shots (a few seconds).

As for `CCCCCCN1C(=O)c2cccc3c(NCCN)ccc(c23)C1=O` [InstantLyso LLT-1, 6-(2-aminoethyl)amino-2-hexyl-1H-benz[de]isoquinoline-1,3-(2H)-dione], the resistance to photobleaching result is on record as “holds up much better than the others”.
